Data published in US5444055A, “17-hydroxyiminomethyl-5-β, 14 β-androstane derivatives active on the cardiovascular system, processes for their preparation and pharmaceutical compositions containing same” (Sigma-Tau Industrie Farmaceutiche Riunite S.p.A., priority 1992, dated 1995).

Columns and labels:
Na^+,K^+ -ATPase [1] = conditions: literature report; cited from earlier work
[2] = literature report; cited from earlier work
Na^+,K^+ -ATPase [3] = target: T1, Na^+,K^+ -ATPase (Homo sapiens, UniProt P05023); test: displacement of specific ^3 H-ouabain binding from purified Na^+,K^+ -ATPase receptor
Na^+,K^+ -ATPase [4] = target: T1, Na^+,K^+ -ATPase; test: inhibition of the activity of purified Na^+,K^+ -ATPase (hydrolysis of ^32 P-ATP); format: biochemical
[5] = prevention of development of hypertension, 5-week oral treatment, tail cuff SBP and HR; format: in vivo; conditions: 5 week-treatment, 20 mg/Kg/os daily in Methocel 0.5% w/v, 7 rats (MHS); for SBP: controls 173 +/- 4.5; for HR: controls 382 +/- 8.3
[6] = read-out: Binding ^3 H-Ouab. Displacement -log IC50 (converted)
[7] = purified Na^+,K^+ -ATPase, ^32 P-ATP hydrolysis, read-out: Inhibitory Activity -log IC50 (converted)

Compound	IC50 (Na^+,K^+ -ATPase [3]; [6])	IC50 (Na^+,K^+ -ATPase [4])	IC50 (Na^+,K^+ -ATPase [4]; [7])	further results
C[C@]12CC[C@H](O)C[C@H]1CC[C@@H]1[C@@H]2CC[C@]2(C)C(=NNC(=N)N)CC[C@]12O [17-guanidinoimino-5β-androstane-3β,14β-diol]				inhibition of Na^+,K^+-ATPase (Na^+,K^+ -ATPase [1]): weak inhibitors of Na^+,K^+ -ATPase; positive inotropic activity [2]: weak positive inotropic agents
CO/N=C/[C@H]1CC[C@]2(O)[C@@H]3CC[C@@H]4C[C@@H](O)CC[C@]4(C)[C@H]3CC[C@]12C [Comp. I-aa, (E)-17β-Methoxyiminomethyl-5β-androstane-3β,14β-diol]	3980 nM	31600 nM		
CN(C)CCCO/N=C/[C@H]1CC[C@]2(O)[C@@H]3CC[C@@H]4C[C@@H](O)CC[C@]4(C)[C@H]3CC[C@]12C [Comp. I-af, (E)-17β-(3-Dimethylaminopropoxyimino)methyl-5.β-androstane-3β,14β-diol]	158 nM	2510 nM		
CN(C)CCO/N=C/[C@@]1(O)CC[C@]2(O)[C@@H]3CC[C@@H]4C[C@@H](O)CC[C@]4(C)[C@H]3CC[C@]12C [Comp. I-ak, (E)-17β-(2-Dimethylaminoethoxyimino)methyl-5β-androstane-3β,14β,17α-triol]	1000 nM		39800 nM	
CN(C)CCO/N=C/[C@H]1CC[C@]2(O)[C@@H]3CC[C@@H]4CC(=NNC(=N)N)CC[C@]4(C)[C@H]3CC[C@]12C (mixture of isomers) [Comp. I-aw, 3-((EZ)-Guanidinoimino)-17β-((E)-2-dimethylaminoethoxyiminomethyl)-5β-androstane-14β-ol]	79.4 nM		1260 nM	
CO/N=C/[C@H]1CC[C@]2(O)[C@@H]3CC[C@@H]4C[C@@H](OCCCN)CC[C@]4(C)[C@H]3CC[C@]12C [Comp. I-aq, (E)-3β-(3-Aminopropoxy)-17β-methoxyiminomethyl-5β-androstane-14β-ol]	631 nM	15800 nM		
CN(C)CCO/N=C/[C@H]1CC[C@]2(O)[C@@H]3CC[C@@H]4C[C@@H](OCCN5CCCC5)CC[C@]4(C)[C@H]3CC[C@]12C [Comp. I-au, (E)-3β-(2-(1-Pyrrolidinyl)ethoxy)-17β-(2-dimethylaminoethoxyimino)methyl-5β-androstane-3β,14β-diol]			398 nM	IC50 (Na^+,K^+ -ATPase [3]): 50.1 nM
CN(C)CCO/N=C/[C@H]1CC[C@]2(O)[C@@H]3CC[C@@H]4C[C@@H](O)CC[C@]4(C)[C@H]3CC[C@]12C [Comp. I-ad, (E)-17β-(2-Dimethylaminoethoxyimino)methyl-5β-androstane-3β,14 β-diol]	39.8 nM	1260 nM		SBP [5]: 148 +/- 4.0 mm Hg; HR [5]: 375 +/- 10.5 beats/min.
C[C@]12CC[C@H](O)C[C@H]1CC[C@@H]1[C@@H]2CC[C@]2(C)[C@@H](C=NO)CC[C@]12O [17β-hydroxyiminomethyl-5β-androstane-3b,14b-diol]				inhibition of Na^+,K^+-ATPase (Na^+,K^+ -ATPase [1]): not to inhibit Na^+,K^+ -ATPase
C[C@]12CC[C@H](O)C[C@H]1CC[C@@H]1[C@@H]2CC[C@]2(C)[C@@H](C=NNC(=N)N)CC[C@]12O [17β-guanidinoiminomethyl-5β-androstane-3β,14β-diol]				inhibition of Na^+,K^+-ATPase (Na^+,K^+ -ATPase [1]): weak inhibitors of Na^+,K^+ -ATPase; positive inotropic activity [2]: weak positive inotropic agents
CO/N=C/[C@H]1CC[C@]2(O)[C@@H]3CC[C@@H]4C[C@@H](OCCN5CCCC5)CC[C@]4(C)[C@H]3CC[C@]12C [Comp. I-ar]	794 nM		15800 nM	SBP [5]: 158 +/- 4.0 mm Hg; HR [5]: 385 +/- 6.4 beats/min.
C[C@]12CC[C@H](O)C[C@H]1CC[C@@H]1[C@@H]2CC[C@]2(C)[C@@H](/C=N/OCCNC(=N)N)CC[C@]12O [Comp. I-ag, (E)-17β-(2-Guanidinoethoxyimino)methyl-5β-androstane-3β,14β-diol]	158 nM	3160 nM		
C[C@]12CC[C@H](O)C[C@H]1CC[C@@H]1[C@@H]2CC[C@]2(C)[C@@H](/C=N/OCCN)CC[C@]12O [Comp. I-ab, (E)-17β-(2-Aminoethoxyimino)methyl-5β-androstane-3β-diol]	79.4 nM		1580 nM	
CN(C)CCO/N=C/[C@H]1CC[C@]2(O)[C@@H]3CC[C@@H]4C[C@@H](OCCCN)CC[C@]4(C)[C@H]3CC[C@]12C [Comp. I-as, (E)-3β-(3-Aminopropoxy)-17β-(2-dimethylaminoethoxyimino)methyl-5β-androstane-14β-ol]	39.8 nM		316 nM	SBP [5]: 149 +/- 7.9 mm Hg; HR [5]: 377 +/- 9.5 beats/min.
CN(C)CCON=C1CC[C@@]2(C)[C@H](CC[C@@H]3[C@@H]2CC[C@]2(C)[C@@H](/C=N/OCCN(C)C)CC[C@]32O)C1 (mixture of isomers) [Comp. I-az]	126 nM		2000 nM	
C/C(=N\OCCN(C)C)[C@H]1CC[C@]2(O)[C@@H]3CC[C@@H]4C[C@@H](O)CC[C@]4(C)[C@H]3CC[C@]12C [Comp. I-ai, (E)-20-(2-Dimethylaminoethoxyimino)-5β-pregnane-3β,14β-diol]	79.4 nM		2000 nM	
